Experiments:
[1] = biological target: Human recombinant PDE2A (hPDE2A) (Homo sapiens (Human), UniProt O00408); experiment: In vitro assay PDE2A (SPA, 3H-cGMP); format: biochemical
Experimental: Human recombinant PDE2A (hPDE2A) was expressed in Sf9 cells using a recombinant […] baculovirus construct. […] Tested compounds were dissolved and diluted in 100% DMSO to a concentration 100 fold of the final concentration in the assay. Compound dilutions (0.4 μl) were added in 384 well plates to 20 μl of incubation buffer (50 mM Tris pH 7.8, 8.3 mM MgCl2, 1.7 mM EGTA). […] of hPDE2A enzyme in incubation buffer was added and the reaction was started by addition of 10 μl substrate to a final concentration of 10 μM cGMP and 0.01 μCi ^3H-cGMP. The reaction was incubated for 45 minutes at room temperature. […] After sedimentation of the beads during 30 minutes the radioactivity was measured in a Perkin Elmer Topcount scintillation counter and results were expressed as cpm. For blanc values the enzyme was omitted from the reaction and replaced by incubation buffer. Control values were obtained by addition of a final concentration of 1% DMSO instead of compound.

[2] = biological target: Human recombinant PDE3A (hPDE3A) (Homo sapiens, UniProt Q14432); experiment: In vitro assay PDE3A (SPA, 3H-cAMP); format: biochemical; details: −log IC50 expressed in mol/L; method describes hPDE3A
Experimental: Human recombinant PDE3A (hPDE3A) was supplied as a partially purified insect cell lysate by Scottish Biomedical, it was cloned from human brain and expressed in Sf9 cells. Tested compounds were dissolved and diluted in 100% DMSO to a concentration 100 fold of the final concentration in the assay. Compound dilutions (0.4 μl) were added in 384 well plates to 20 μl of incubation buffer (50 mM Tris pH 7.8, 8.3 mM MgCl2, 1.7 mM EGTA). 10 μl of hPDE3A enzyme in incubation buffer was added and the reaction was started by addition of 10 μl substrate to a final concentration of 0.4 μM cAMP and 2.4 μCi/ml [^3H]-cAMP. The reaction was incubated for 60 min at room temperature. After incubation, the reaction was stopped with 20 μl of stop solution consisting of 17.8 mg/ml PDE SPA (scintillation proximity assay) beads supplemented with 200 mM ZnCl2. After sedimentation of the beads during 30 min the radioactivity was measured in a Perkin Elmer Topcount scintillation counter and results were expressed as cpm. For blanc values the enzyme was omitted from the reaction and replaced by incubation buffer. Control values were obtained by addition of a final concentration of 1% DMSO instead of compound. […]

[3] = biological target: Rat recombinant PDE10A (rPDE10A2) (Rattus norvegicus (Rat), UniProt Q9QYJ6); experiment: In vitro assay PDE10A (SPA, 3H-cAMP); format: biochemical; details: −log IC50 expressed in mol/L
Experimental: Rat recombinant PDE10A (rPDE10A2) was expressed in Sf9) cells using a recombinant rPDE10A baculovirus construct. Cells were harvested after 48 h of infection and the rPDE10A protein was purified by metal chelate chromatography on Ni-sepharose 6FF. Tested compounds were dissolved and diluted in 100% DMSO to a concentration 100 fold of the final concentration in the assay. Compound dilutions (0.4 μl) were added in 384 well plates to 20 μl of incubation buffer (50 mM Tris pH 7.8, 8.3 mM MgCl2, 1.7 mM EGTA). 10 μl of rPDE10A enzyme in incubation buffer was added and the reaction was started by addition of 10 μl substrate to a final concentration of 60 nM cAMP and 0.008 μCi ^3H-cAMP. The reaction was incubated for 60 minutes at room temperature. After incubation, the reaction was stopped with 20 μl of stop solution consisting of 17.8 mg/ml PDE SPA (scintillation proximity assay) beads. After sedimentation of the beads during 30 minutes the radioactivity was measured in a Perkin Elmer Topcount scintillation counter and results were expressed as cpm. For blanc values the enzyme was omitted from the reaction and replaced by incubation buffer. Control values were obtained by addition of a final concentration of 1% DMSO instead of compound. […]

[4] = test system: Marshall Beagle dogs; experiment: Single dose PK/PD PDE2i dog study; format: in vivo
Text: For these studies male and female Marshall Beagle dogs (1-6 y) were used: 2 males and 2 females per treatment group. Cerebrospinal fluid (CSF) was sampled from the lateral ventricle via a needle guide cannula in instrumented conscious animals.
Baseline CSF and blood samples were taken 2 to 5 days before dosing. The dogs are fasted overnight and the next morning dosed on an empty stomach (orally by gavage). At predetermined time points after dosing blood and/or CSF was collected for the measurement of compound levels and cGMP. Analysis of cGMP was done by LCMS/MS: 25 μl CSF was diluted with 125 μl artificial CSF (STIL (20 ng/ml)), centrifugated and 25 μl was injected. The systems used were: a Shimadzu SIL-30 UPLC-system (Hypercarb (50 mm×1 mm (3 μm)) column, basic (10 mM ammonium carbonate) aqueous-acetonitrile gradient (5% to 98% in 5.5 minutes) at a flow-rate of 250 μl/min) and an API Sciex 5500 system equiped with an ESI source (selective MRM transition (m/z 346.1→152.1 (75 msec dwelltime)). The results of this study are summarized in FIG. 7. After a single dose of compound 1 the following observations were made: slight to moderate tremors in 3/8 animals at 0.5 mg/kg; sedation and/or tremors in 6 out of 7 animals at 1 mg/kg (one animal was not dosed due to limited stock of the compound). […] Limited individual data in the vehicle group of PDE2 H-2 (n=2 at 1, 4 and 8 h) due to analytical errors.

[5] = test system: dentate gyrus of anesthetized adult Sprague Dawley; experiment: LTP / synaptic plasticity in dentate gyrus of anesthetized rats; format: in vivo, rat
[6] = 40 mg/kg SC, 90-120 min post-tetanization, relative to baseline 100%

Chain of Human recombinant PDE2A (hPDE2A) (O00408 whole entry): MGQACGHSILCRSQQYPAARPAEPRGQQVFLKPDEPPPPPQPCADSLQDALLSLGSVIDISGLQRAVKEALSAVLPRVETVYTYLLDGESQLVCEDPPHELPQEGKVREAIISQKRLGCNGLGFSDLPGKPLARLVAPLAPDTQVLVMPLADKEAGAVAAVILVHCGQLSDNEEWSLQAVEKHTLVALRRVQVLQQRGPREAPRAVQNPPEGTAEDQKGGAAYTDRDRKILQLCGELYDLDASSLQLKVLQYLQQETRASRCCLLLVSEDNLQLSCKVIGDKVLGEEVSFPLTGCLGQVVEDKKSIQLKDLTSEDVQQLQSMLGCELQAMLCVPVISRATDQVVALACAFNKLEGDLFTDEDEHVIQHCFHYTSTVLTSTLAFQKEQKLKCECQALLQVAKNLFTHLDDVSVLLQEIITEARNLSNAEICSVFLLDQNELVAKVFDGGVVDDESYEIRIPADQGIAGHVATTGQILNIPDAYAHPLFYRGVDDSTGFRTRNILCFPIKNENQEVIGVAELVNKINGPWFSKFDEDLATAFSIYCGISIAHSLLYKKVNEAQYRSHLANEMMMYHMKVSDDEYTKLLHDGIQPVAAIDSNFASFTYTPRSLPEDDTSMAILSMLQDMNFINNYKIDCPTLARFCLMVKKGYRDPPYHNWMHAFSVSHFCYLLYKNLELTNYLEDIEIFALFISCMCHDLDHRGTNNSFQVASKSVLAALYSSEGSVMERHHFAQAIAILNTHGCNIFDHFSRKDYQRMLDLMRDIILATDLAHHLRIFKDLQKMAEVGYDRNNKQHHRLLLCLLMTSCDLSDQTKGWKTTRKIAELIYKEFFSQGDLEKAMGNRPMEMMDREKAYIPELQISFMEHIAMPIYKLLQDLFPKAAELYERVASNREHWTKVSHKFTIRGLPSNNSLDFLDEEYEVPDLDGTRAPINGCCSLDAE
Chain of Human recombinant PDE3A (hPDE3A) (Q14432 whole entry, looked up): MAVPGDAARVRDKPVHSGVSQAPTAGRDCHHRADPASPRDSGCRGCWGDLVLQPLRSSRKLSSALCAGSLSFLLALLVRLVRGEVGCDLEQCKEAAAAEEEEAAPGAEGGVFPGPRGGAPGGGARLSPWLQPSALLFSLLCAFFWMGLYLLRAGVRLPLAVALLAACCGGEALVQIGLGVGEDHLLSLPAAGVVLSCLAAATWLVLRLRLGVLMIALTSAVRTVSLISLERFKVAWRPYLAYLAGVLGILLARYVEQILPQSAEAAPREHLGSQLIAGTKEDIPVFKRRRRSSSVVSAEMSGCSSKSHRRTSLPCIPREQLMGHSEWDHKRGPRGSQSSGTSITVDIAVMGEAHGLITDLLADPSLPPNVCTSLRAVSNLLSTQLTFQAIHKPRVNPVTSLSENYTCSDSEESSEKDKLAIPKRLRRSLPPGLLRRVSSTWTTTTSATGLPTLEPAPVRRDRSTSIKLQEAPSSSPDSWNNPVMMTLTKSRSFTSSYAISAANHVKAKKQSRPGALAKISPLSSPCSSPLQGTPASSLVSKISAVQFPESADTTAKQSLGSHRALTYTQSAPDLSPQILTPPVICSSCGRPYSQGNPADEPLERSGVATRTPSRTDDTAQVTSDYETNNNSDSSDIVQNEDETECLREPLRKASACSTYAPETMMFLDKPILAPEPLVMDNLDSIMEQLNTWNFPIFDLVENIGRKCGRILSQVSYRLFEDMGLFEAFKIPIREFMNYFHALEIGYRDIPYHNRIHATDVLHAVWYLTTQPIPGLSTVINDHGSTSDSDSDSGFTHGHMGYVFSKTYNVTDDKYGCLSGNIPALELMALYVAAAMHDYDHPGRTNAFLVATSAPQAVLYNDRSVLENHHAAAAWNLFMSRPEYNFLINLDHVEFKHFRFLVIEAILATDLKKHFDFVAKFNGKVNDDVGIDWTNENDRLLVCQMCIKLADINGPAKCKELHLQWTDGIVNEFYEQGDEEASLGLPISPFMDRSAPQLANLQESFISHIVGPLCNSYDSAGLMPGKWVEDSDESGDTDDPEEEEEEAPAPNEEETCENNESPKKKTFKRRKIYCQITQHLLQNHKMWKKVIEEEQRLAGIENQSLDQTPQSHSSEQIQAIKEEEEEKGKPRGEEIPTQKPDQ
Chain of Rat recombinant PDE10A (rPDE10A2) (Q9QYJ6 whole entry): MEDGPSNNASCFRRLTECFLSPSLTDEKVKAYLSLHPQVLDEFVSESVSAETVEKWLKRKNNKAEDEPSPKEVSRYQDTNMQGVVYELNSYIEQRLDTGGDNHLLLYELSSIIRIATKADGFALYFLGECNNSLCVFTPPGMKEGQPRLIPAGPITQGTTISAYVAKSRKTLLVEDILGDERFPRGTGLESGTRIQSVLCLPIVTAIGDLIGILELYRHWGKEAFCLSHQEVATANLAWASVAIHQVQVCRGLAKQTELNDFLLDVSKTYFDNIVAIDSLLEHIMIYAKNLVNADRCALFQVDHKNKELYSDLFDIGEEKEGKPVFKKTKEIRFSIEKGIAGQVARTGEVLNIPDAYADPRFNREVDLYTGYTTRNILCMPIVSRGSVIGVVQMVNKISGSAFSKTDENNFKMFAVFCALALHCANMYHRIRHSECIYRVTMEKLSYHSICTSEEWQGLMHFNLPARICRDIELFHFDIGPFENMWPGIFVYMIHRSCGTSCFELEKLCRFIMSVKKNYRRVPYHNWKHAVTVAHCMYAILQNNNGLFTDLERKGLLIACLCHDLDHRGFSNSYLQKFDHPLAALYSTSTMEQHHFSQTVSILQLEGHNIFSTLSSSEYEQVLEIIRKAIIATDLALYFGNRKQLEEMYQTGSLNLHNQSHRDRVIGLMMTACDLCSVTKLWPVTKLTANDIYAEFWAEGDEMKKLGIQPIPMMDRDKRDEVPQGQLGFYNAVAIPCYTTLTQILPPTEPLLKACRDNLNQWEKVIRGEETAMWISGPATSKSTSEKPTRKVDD

With `Cc1cc(C(=O)N2CC[C@@H](C)[C@H](c3cc(C(F)F)nc4ncnn34)C2)cc(C)n1` [Compound 1] the IC50 ([1]; hPDE2A, 10 μM cGMP) was 0.95 nM, the “pIC50 (PDE2A)” value ([1]; −log IC50 expressed in mol/L) was 9.07 and the “pIC50 PDE3B” value [2] was 5.21. The “pIC50 PDE10A2” value [3] was 7.06, the “Plasma pharmacokinetics dose linearity” value ([4]; single oral dose) was “non-dose linearity” and the “slight to moderate tremors” value ([4]; single oral dose 0.5 mg/kg) was 3/8. For the same compound, the sedation and/or tremors ([4]; single oral dose 1 mg/kg) was 6 out of 7, the “cGMP in the CSF” value ([4]; single oral dose, CSF from lateral ventricle) was “dose related increase” and the PSA slopes ([5]; 40 mg/kg SC, 0-30 min after tetanization, relative to baseline 100%) was 164±13%. For the same compound, the PSA amplitude [5, 6] was 179±20%, the fEPSP slope [5, 6] was 137±24% and the “duration of enhanced synaptic potentiation” value ([5]; 40 mg/kg SC, LTP induction paradigm) was over 2 h. For the same compound, the Basal synaptic transmission ([5]; baseline pre-tetanus, versus vehicle-treated control) was “not affected” and the LTP in vivo ([5]; overall conclusion) was “facilitates LTP in vivo”.

From patent US10947239B2, “[1,2,4]triazolo[1,5-a]pyrimidin-7-yl compound” (Janssen Pharmaceutica NV, priority 2015, dated 2021)
